Assays:
Assay type in all cases: in vivo
[1] = tested on: Abutilon theophrasti; experiment: Herbicidal action post-emergence (greenhouse pot trial); conditions: scored visually after about 3 weeks vs untreated controls
Summary of the method: (§1)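 Percent herbicidal efficacy, assessed by eye about 3 weeks after spraying, compares treated with untreated plants. Treatment is a post-emergence spray at the one-leaf stage, using a WP or EC preparation plus 0.5% additive in 600 L/ha of water, at 80 g/ha or lower.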

[2] = tested on: Alopecurus myosuroides; experiment: as above; conditions: scored visually after about 3 weeks vs untreated controls
Summary of the method: as §1

[3] = tested on: Amaranthus retroflexus; experiment: as above; conditions: scored visually after about 3 weeks vs untreated controls
Summary of the method: as §1

[4] = tested on: Avena fatua; experiment: as above; conditions: scored visually after about 3 weeks vs untreated controls
Summary of the method: as §1

[5] = tested on: Echinochloa crus-galli; experiment: as above; conditions: scored visually after about 3 weeks vs untreated controls
Summary of the method: as §1

[6] = tested on: Hordeum murinum; experiment: as above; conditions: scored visually after about 3 weeks vs untreated controls
Summary of the method: as §1

[7] = tested on: Lolium rigidum; experiment: as above; conditions: scored visually after about 3 weeks vs untreated controls
Summary of the method: as §1

[8] = tested on: Matricaria inodora; experiment: as above; conditions: scored visually after about 3 weeks vs untreated controls
Summary of the method: as §1

[9] = tested on: Pharbitis purpurea; experiment: as above
Summary of the method: as §1

[10] = tested on: Polygonum convolvulus; experiment: as above; conditions: scored visually after about 3 weeks vs untreated controls
Summary of the method: as §1

[11] = tested on: Setaria viridis; experiment: as above; conditions: scored visually after about 3 weeks vs untreated controls
Summary of the method: as §1

[12] = tested on: Stellaria media; experiment: as above; conditions: scored visually after about 3 weeks vs untreated controls
Summary of the method: as §1

[13] = tested on: Veronica persica; experiment: as above
Summary of the method: as §1

[14] = tested on: Viola tricolor; experiment: as above
Summary of the method: as §1

[15] = tested on: Glycine max; experiment: Crop compatibility post-emergence (greenhouse pot trial); conditions: application rate 25 g/ha
Summary of the method: (§2)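 Greenhouse pot trial: sandy loam, sown seeds, treatment at one-leaf stage 2–3 wk after sowing. Spray: aqueous WP/EC preparation, 0.5% additive, 600 L/ha. Readout: visual % effect after ~3 wk relative to untreated plants.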

[16] = tested on: Oryza sativa; experiment: as above; conditions: application rate 5 g/ha
Summary of the method: as §2

[17] = tested on: Triticum aestivum; experiment: as above
Summary of the method: as §2

[18] = tested on: Zea mays; experiment: as above
Summary of the method: as §2

[19] = tested on: Abutilon theophrasti; experiment: Herbicidal action pre-emergence (greenhouse pot trial); conditions: application rate 320 g/ha, scored after about 3 weeks
Summary of the method: (§3)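 Pots containing sown seeds beneath a soil layer were sprayed with the test formulations at an application rate of 320 g/ha or lower. Percent efficacy was assigned by eye about three weeks afterwards, with dead plants scored as 100%.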

[20] = tested on: Alopecurus myosuroides; experiment: as above; conditions: application rate 320 g/ha, scored after about 3 weeks
Summary of the method: as §3

[21] = tested on: Amaranthus retroflexus; experiment: as above; conditions: application rate 320 g/ha, scored after about 3 weeks
Summary of the method: as §3

[22] = tested on: Avena fatua; experiment: as above; conditions: application rate 320 g/ha
Summary of the method: as §3

[23] = tested on: Echinochloa crus-galli; experiment: as above; conditions: application rate 320 g/ha, scored after about 3 weeks
Summary of the method: as §3

[24] = tested on: Hordeum murinum; experiment: as above; conditions: application rate 320 g/ha
Summary of the method: as §3

[25] = tested on: Lolium rigidum; experiment: as above; conditions: application rate 320 g/ha
Summary of the method: as §3

[26] = tested on: Matricaria inodora; experiment: as above; conditions: application rate 320 g/ha, scored after about 3 weeks
Summary of the method: as §3

[27] = tested on: Pharbitis purpurea; experiment: as above; conditions: application rate 320 g/ha
Summary of the method: as §3

[28] = tested on: Setaria viridis; experiment: as above; conditions: application rate 320 g/ha, scored after about 3 weeks
Summary of the method: as §3

[29] = tested on: Stellaria media; experiment: as above; conditions: application rate 320 g/ha, scored after about 3 weeks
Summary of the method: as §3

[30] = tested on: Veronica persica; experiment: as above; conditions: application rate 320 g/ha
Summary of the method: as §3

[31] = tested on: Viola tricolor; experiment: as above; conditions: application rate 320 g/ha, scored after about 3 weeks
Summary of the method: as §3

[32] = tested on: Zea mays; experiment: Crop compatibility pre-emergence (greenhouse pot trial); conditions: application rate 80 g/ha, effect vs untreated controls
Summary of the method: (§4)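 Pre-emergence: seeds sown in pots, covered with soil, then WP or EC formulations sprayed on soil surface as aqueous suspension/emulsion with 0.5% additive at 600 L/ha water. Greenhouse; crop damage scored visually as % versus untreated controls after about 3 weeks (100% = dead).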

[33] = tested on: Digitaria sanguinalis; experiment: Herbicidal action post-emergence (greenhouse pot trial)
Summary of the method: as §1

[34] = tested on: Digitaria sanguinalis; experiment: Herbicidal action pre-emergence (greenhouse pot trial); conditions: application rate 80 g/ha
Summary of the method: as §3

[35] = tested on: Glycine max; experiment: Crop compatibility pre-emergence (greenhouse pot trial); conditions: application rate 20 g/ha, effect vs untreated controls
Summary of the method: as §4

CON(C(=O)C(C)Sc1cc(-n2c(=O)cc(C(F)(F)F)n(C)c2=O)c(F)cc1Cl)C1CCOC1 (stereo not drawn) [I.1-341]
100%: Abutilon theophrasti (Efficacy in %) ([1]; application rate 80 g/ha) | Amaranthus retroflexus (Efficacy in %) ([3]; application rate 80 g/ha) | Echinochloa crus-galli (Efficacy in %) ([5]; application rate 80 g/ha) | Lolium rigidum (Efficacy in %) ([7]; application rate 80 g/ha) | Matricaria inodora (Efficacy in %) ([8]; application rate 80 g/ha) | Pharbitis purpurea (Efficacy in %) ([9]; application rate 80 g/ha) | Polygonum convolvulus (Efficacy in %) ([10]; application rate 80 g/ha) | Setaria viridis (Efficacy in %) ([11]; application rate 80 g/ha) | Stellaria media (Efficacy in %) ([12]; application rate 80 g/ha) | Veronica persica (Efficacy in %) ([13]; application rate 80 g/ha) | Viola tricolor (Efficacy in %) ([14]; application rate 80 g/ha) | Abutilon theophrasti (Efficacy in %) [19] | Amaranthus retroflexus (Efficacy in %) [21] | Echinochloa crus-galli (Efficacy in %) [23] | Lolium rigidum (Efficacy in %) [25] | Matricaria inodora (Efficacy in %) [26] | Pharbitis purpurea (Efficacy in %) [27] | Setaria viridis (Efficacy in %) [28] | Stellaria media (Efficacy in %) [29] | Veronica persica (Efficacy in %) [30] | Viola tricolor (Efficacy in %) [31]
0%: Zea mays (Efficacy in %) [32]
10%: Glycine max (Efficacy in %) [15] | Oryza sativa (Efficacy in %) [16] | Triticum aestivum (Efficacy in %) ([17]; application rate 20 g/ha) | Zea mays (Efficacy in %) ([18]; application rate 20 g/ha)
80%: Hordeum murinum (Efficacy in %) [24]
90%: Alopecurus myosuroides (Efficacy in %) ([2]; application rate 80 g/ha) | Avena fatua (Efficacy in %) ([4]; application rate 80 g/ha) | Hordeum murinum (Efficacy in %) ([6]; application rate 80 g/ha) | Alopecurus myosuroides (Efficacy in %) [20] | Avena fatua (Efficacy in %) [22]

CC(Sc1cc(-n2c(=O)cc(C(F)(F)F)n(C)c2=O)c(F)cc1Cl)C(=O)OC1CCOC1 (stereo not drawn) [I.1-121]
80%: Avena fatua (Efficacy in %) ([4]; application rate 20 g/ha) | Hordeum murinum (Efficacy in %) ([6]; application rate 20 g/ha) | Lolium rigidum (Efficacy in %) ([7]; application rate 20 g/ha)
100%: Abutilon theophrasti (Efficacy in %) ([1]; application rate 20 g/ha) | Amaranthus retroflexus (Efficacy in %) ([3]; application rate 20 g/ha) | Digitaria sanguinalis (Efficacy in %) ([33]; application rate 20 g/ha) | Echinochloa crus-galli (Efficacy in %) ([5]; application rate 20 g/ha) | Matricaria inodora (Efficacy in %) ([8]; application rate 20 g/ha) | Pharbitis purpurea (Efficacy in %) ([9]; application rate 20 g/ha) | Polygonum convolvulus (Efficacy in %) ([10]; application rate 20 g/ha) | Setaria viridis (Efficacy in %) ([11]; application rate 20 g/ha) | Stellaria media (Efficacy in %) ([12]; application rate 20 g/ha) | Veronica persica (Efficacy in %) ([13]; application rate 20 g/ha)

CC(Sc1cc(-n2c(=O)cc(C(F)(F)F)n(C)c2=O)c(F)cc1Cl)C(=O)OC1COC1 (stereo not drawn) [I.1-115]
100%: Abutilon theophrasti (Efficacy in %) ([1]; application rate 20 g/ha) | Amaranthus retroflexus (Efficacy in %) ([3]; application rate 20 g/ha) | Digitaria sanguinalis (Efficacy in %) ([33]; application rate 20 g/ha) | Hordeum murinum (Efficacy in %) ([6]; application rate 20 g/ha) | Matricaria inodora (Efficacy in %) ([8]; application rate 20 g/ha) | Pharbitis purpurea (Efficacy in %) ([9]; application rate 20 g/ha) | Polygonum convolvulus (Efficacy in %) ([10]; application rate 20 g/ha) | Setaria viridis (Efficacy in %) ([11]; application rate 20 g/ha) | Stellaria media (Efficacy in %) ([12]; application rate 20 g/ha) | Veronica persica (Efficacy in %) ([13]; application rate 20 g/ha) | Viola tricolor (Efficacy in %) ([14]; application rate 20 g/ha)
0%: Oryza sativa (Efficacy in %) [16]
80%: Alopecurus myosuroides (Efficacy in %) ([2]; application rate 20 g/ha) | Avena fatua (Efficacy in %) ([4]; application rate 20 g/ha)
20%: Zea mays (Efficacy in %) ([18]; application rate 5 g/ha)

CCC(Sc1cc(-n2c(=O)cc(C(F)(F)F)n(C)c2=O)c(F)cc1Cl)C(=O)OCC1CCOC1 (stereo not drawn) [I.2-72, Tetrahydrofuran-3-ylmethyl 2-({2-chloro-4-fluoro-5-[3-methyl-2,6-dioxo-4-(trifluoromethyl)-3,6-dihydropyrimidin-1(2H)-yl]phenyl}sulfanyl)butanoate]
10%: Zea mays (Efficacy in %) [32]
80%: Avena fatua (Efficacy in %) ([4]; application rate 80 g/ha) | Hordeum murinum (Efficacy in %) ([6]; application rate 80 g/ha) | Lolium rigidum (Efficacy in %) ([7]; application rate 80 g/ha) | Avena fatua (Efficacy in %) [22]
20%: Oryza sativa (Efficacy in %) [16] | Triticum aestivum (Efficacy in %) ([17]; application rate 80 g/ha) | Glycine max (Efficacy in %) [35]
90%: Alopecurus myosuroides (Efficacy in %) ([2]; application rate 80 g/ha) | Hordeum murinum (Efficacy in %) [24] | Lolium rigidum (Efficacy in %) [25]
100%: Abutilon theophrasti (Efficacy in %) ([1]; application rate 80 g/ha) | Amaranthus retroflexus (Efficacy in %) ([3]; application rate 80 g/ha) | Digitaria sanguinalis (Efficacy in %) ([33]; application rate 80 g/ha) | Echinochloa crus-galli (Efficacy in %) ([5]; application rate 80 g/ha) | Matricaria inodora (Efficacy in %) ([8]; application rate 80 g/ha) | Pharbitis purpurea (Efficacy in %) ([9]; application rate 80 g/ha) | Polygonum convolvulus (Efficacy in %) ([10]; application rate 80 g/ha) | Setaria viridis (Efficacy in %) ([11]; application rate 80 g/ha) | Stellaria media (Efficacy in %) ([12]; application rate 80 g/ha) | Veronica persica (Efficacy in %) ([13]; application rate 80 g/ha) | Viola tricolor (Efficacy in %) ([14]; application rate 80 g/ha) | Abutilon theophrasti (Efficacy in %) [19] | Alopecurus myosuroides (Efficacy in %) [20] | Amaranthus retroflexus (Efficacy in %) [21] | Digitaria sanguinalis (Efficacy in %) [34] | Echinochloa crus-galli (Efficacy in %) [23] | Matricaria inodora (Efficacy in %) [26] | Pharbitis purpurea (Efficacy in %) [27] | Setaria viridis (Efficacy in %) [28] | Stellaria media (Efficacy in %) [29] | Veronica persica (Efficacy in %) [30] | Viola tricolor (Efficacy in %) [31]
